Test results: paper PMC11904993, “Humanized Candida and NanoBiT Assays Expedite Discovery of Bdf1 Bromodomain Inhibitors With Antifungal Potential” (Advanced Science, 2025)
Where “and” joins values, the source holds several entries; their conditions need not be identical. Equal values may be shown once. Read-outs that look alike come from different tables or passages of the source.

Columns and labels:
[1] = molecular target: CgBdf1 BD1 (Candida glabrata, UniProt Q6FWV7); assay: HTRF assay, inhibition of H4ac4 peptide binding; set-up: species or system C. glabrata; conditions: for IC50: Table S4
CgBdf1 BD1 (Candida glabrata, UniProt Q6FWV7), sequence (Q6FWV7 entry or part of it): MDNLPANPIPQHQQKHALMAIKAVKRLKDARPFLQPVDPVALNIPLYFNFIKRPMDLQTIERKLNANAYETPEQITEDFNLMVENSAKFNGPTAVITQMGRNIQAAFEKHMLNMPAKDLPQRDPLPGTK

[2] = molecular target: CgBdf1 BD2 (Candida glabrata, UniProt Q6FWV7); assay: biochemical; assay type: binding, C. glabrata
CgBdf1 BD2 (Candida glabrata, UniProt Q6FWV7), sequence (Q6FWV7 entry or part of it): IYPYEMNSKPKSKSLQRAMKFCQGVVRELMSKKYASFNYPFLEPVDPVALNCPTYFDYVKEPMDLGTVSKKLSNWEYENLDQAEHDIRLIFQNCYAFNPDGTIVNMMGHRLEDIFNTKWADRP

[3] = molecular target: human Brd4 BD1 (Homo sapiens, UniProt O60885); assay: HTRF assay, inhibition of H4ac4 peptide binding; conditions: for %HTRF Signal: Exp1-3
[4] = molecular target: T1, human Brd4 BD2 (Homo sapiens, UniProt O60885); assay: HTRF assay, inhibition of H4ac4 peptide binding; conditions: hBrd4 BD2; for %HTRF Signal: Exp1-3
T1 construct: GST‐tagged BD2 (residues 349–460) from human Brd4 (UniProt ID O60885); purchased Reaction Biology Corp

[5] = test system: CgBdf1 BD1; assay: Histone peptide array assay; conditions: peptide array signal
Protocol: (§1) The array was prepared as described in the manufacturer's instructions. […] The array was then washed three times with binding buffer. Anti‐GST antibody (GE Healthcare) was used for the detection of GST‐tagged bromodomains.

[6] = test system: CgBdf1 BD2; assay: Histone peptide array assay; conditions: peptide array signal
Protocol: as §1

[7] = test system: C. glabrata strains expressing WT and mutant Bdf1; assay: Growth inhibition in liquid media, C. glabrata lab strains; conditions: Exp 1-3, Figure S9A
Protocol: Growth on Liquid Media with C. glabrata Lab Strains: Cells were grown at 30 °C in SC+M+C‐U medium (SC medium with 5 mM methionine, 0.25 mM cysteine, without uracil) to an OD600 of 0.5–0.8. […] Plates were incubated at 30 °C and OD600 was measured using a Multiskan FC Microplate Photometer (Thermo Fisher).

[8] = test system: C. glabrata strains (WT, pdr1∆ or PDR1 rescue); assay: Growth assays to assess compound efflux; assay type: cell-based; conditions: for growth (Figure S10A): three replicates
Protocol: Cells from a single colony were diluted in 0.85% NaCl before being counted using a Neubauer chamber. […] The effect of fluconazole was tested by titration on these strains under similar conditions.

[9] = Fig 1D/2A original data, single experiments Exp1-3

In the case of Cn1nccc1C(=O)NCc1ccc(-c2nc(-c3cccs3)no2)s1 [Compound 63], the “%HTRF Signal” value [1] is reported as 92.96% and 94.93% and 114.99%, the “%HTRF Signal” value ([1]; CgBD1, compound 2.10 nM, Exp1-3) is reported as 89.22% and 91.15% and 92.46% and the “%HTRF Signal” value ([1]; CgBD1, compound 13.11 nM, Exp1-3) is reported as 137.24% and 96.18% and 98.59%. The “%HTRF Signal” value ([1]; CgBD1, compound 32.77 nM, Exp1-3) was 89.47% and 88.02% and 93.78%, the “%HTRF Signal” value ([1]; CgBD1, compound 81.92 nM, Exp1-3) was 87.12% and 79.28% and 89.90% and the “%HTRF Signal” value ([1]; CgBD1, compound 204.8 nM, Exp1-3) was 79.54% and 70.30% and 76.77%. The “%HTRF Signal” value ([1]; CgBD1, compound 512 nM, Exp1-3) was 60.42% and 54.51% and 55.50%, the “%HTRF Signal” value ([1]; CgBD1, compound 1280 nM, Exp1-3) was 88.32% and 78.12% and 81.58% and the “%HTRF Signal” value ([1]; CgBD1, compound 3200 nM, Exp1-3) was 43.73% and 36.43% and 36.08%. For the same molecule, the “%HTRF Signal” value ([1]; CgBD1, compound 8000 nM, Exp1-3) was 32.25% and 38.09% and 29.97%, the “%HTRF Signal” value ([1]; CgBD1, compound 20000 nM, Exp1-3) was 23.85% and 25.61% and 19.76% and the IC50 ([1]; CgBD1, individual experiments Exp1-3, read-out: IC50) was 0.62 µM and 0.71 µM and 0.5 µM. For the same molecule, the “pIC50 CgBD1” value [1, 9] was 6.209 and 6.147 and 6.298, the IC50 ([1]; means ± SD, n=3, read-out: IC50 CgBD1) was 0.61 ± 0.1 µM and the “%HTRF Signal” value [2] was 91.88% and 95.70% and 106.64%. For the same molecule, the “pIC50 CgBD2” value [2] was ≤ 4, the “%HTRF Signal” value ([2]; CgBD2, compound 2.10 nM, Exp1-3) was 86.71% and 109.56% and 96.63% and the “%HTRF Signal” value ([2]; CgBD2, compound 13.11 nM, Exp1-3) was 107.12% and 98.52% and 93.70%. For the same molecule, the “%HTRF Signal” value ([2]; CgBD2, compound 32.77 nM, Exp1-3) was 87.98% and 111.39% and 100.52%, the “%HTRF Signal” value ([2]; CgBD2, compound 81.92 nM, Exp1-3) was 93.69% and 107.27% and 99.37% and the “%HTRF Signal” value ([2]; CgBD2, compound 204.8 nM, Exp1-3) was 87.47% and 98.47% and 101.59%. The “%HTRF Signal” value ([2]; CgBD2, compound 512 nM, Exp1-3) was 94.84% and 95.89% and 102.41%, the “%HTRF Signal” value ([2]; CgBD2, compound 1280 nM, Exp1-3) was 108.51% and 97.41% and 103.91% and the “%HTRF Signal” value ([2]; CgBD2, compound 3200 nM, Exp1-3) was 96.71% and 89.90% and 106.57%. The “%HTRF Signal” value ([2]; CgBD2, compound 8000 nM, Exp1-3) was 101.27% and 103.49% and 103.29%, the “%HTRF Signal” value ([2]; CgBD2, compound 20000 nM, Exp1-3) was 98.71% and 85.34% and 94.42% and the IC50 ([2]; CgBD2, individual experiments Exp1-3, Table S4, read-out: IC50) was > 20 µM. The “pIC50 hBrd4 BD1” value [3, 9] was 4.548 and 4.767 and 4.490, the IC50 ([3]; Table S3, estimate, preliminary single-replicate HTRF assay, read-out: IC50 Brd4 BD1) was > 20 µM and the IC50 ([3]; Table S4, means ± SD, n=3, read-out: IC50 hBrd4 BD1) was 25.9 ± 7.9 µM. For the same molecule, the “%HTRF Signal” value ([3]; hBrd4 BD1, compound 2.10 nM) was 98.36% and 97.75% and 98.52%, the “%HTRF Signal” value ([3]; hBrd4 BD1, compound 5.24 nM) was 96.44% and 101.52% and 99.57% and the “%HTRF Signal” value ([3]; hBrd4 BD1, compound 13.11 nM) was 96.19% and 93.70% and 100.56%. The “%HTRF Signal” value ([3]; hBrd4 BD1, compound 32.77 nM) was 100.99% and 95.89% and 96.28%, the “%HTRF Signal” value ([3]; hBrd4 BD1, compound 81.92 nM) was 95.84% and 103.64% and 102.41% and the “%HTRF Signal” value ([3]; hBrd4 BD1, compound 204.8 nM) was 99.83% and 98.50% and 97.67%. The “%HTRF Signal” value ([3]; hBrd4 BD1, compound 512 nM) was 96.60% and 93.56% and 96.36%, the “%HTRF Signal” value ([3]; hBrd4 BD1, compound 1280 nM) was 82.33% and 98.72% and 104.43% and the “%HTRF Signal” value ([3]; hBrd4 BD1, compound 3200 nM) was 94.57% and 92.75% and 93.44%. The “%HTRF Signal” value ([3]; hBrd4 BD1, compound 8000 nM) was 83.80% and 81.87% and 89.53%, the “%HTRF Signal” value ([3]; hBrd4 BD1, compound 20000 nM) was 44.73% and 68.85% and 53.13% and the IC50 ([3]; hBrd4 BD1, individual experiments Exp1-3, Table S4, read-out: IC50) was 17.1 µM and 32.4 µM and 28.3 µM. The “%HTRF Signal” value ([4]; compound 2.10 nM) was 99.18% and 94.17% and 90.64%, the “%HTRF Signal” value ([4]; compound 5.24 nM) was 99.39% and 99.07% and 97.43% and the “%HTRF Signal” value ([4]; compound 13.11 nM) was 98.29% and 101.48% and 93.41%. For the same molecule, the “%HTRF Signal” value ([4]; compound 32.77 nM) was 93.01% and 99.51% and 101.32%, the “%HTRF Signal” value ([4]; compound 81.92 nM) was 102.00% and 98.93% and 106.04% and the “%HTRF Signal” value ([4]; compound 204.8 nM) was 100.03% and 105.21% and 104.21%. The “%HTRF Signal” value ([4]; compound 512 nM) was 98.01% and 98.41% and 97.72%, the “%HTRF Signal” value ([4]; compound 1280 nM) was 99.07% and 96.81% and 100.81% and the “%HTRF Signal” value ([4]; compound 3200 nM) was 102.84% and 98.87% and 104.55%. For the same molecule, the “%HTRF Signal” value ([4]; compound 8000 nM) was 108.22% and 84.57% and 107.59%, the “%HTRF Signal” value ([4]; compound 20000 nM) was 102.02% and 76.14% and 105.57% and the IC50 ([4]; individual experiments Exp1-3, Table S4, read-out: IC50) was > 20 µM (2×) and 29.2 µM. The “Raw data, WT” value ([5]; CgBdf1 BD1 WT, first replicate column) was 0.003151, the “Normalized (0 to 100%), WT” value ([5]; CgBdf1 BD1 WT, mean of the two raw values) was 1.81% and the “Raw data, WT” value ([5]; CgBdf1 BD1 WT, second replicate column) was 0.03308. The “Raw data, YF mutant” value ([5]; CgBdf1 BD1 YF mutant, first replicate column) was 0.001234, the “Normalized (0 to 100%), YF mutant” value ([5]; CgBdf1 BD1 YF mutant, mean of the two raw values) was 0.216% and the “Raw data, YF mutant” value ([5]; CgBdf1 BD1 YF mutant, second replicate column) was 0.003085. For the same molecule, the “Raw data, WT” value ([6]; CgBdf1 BD2 WT, first replicate column) was 0.004055, the “Normalized (0 to 100%), WT” value ([6]; CgBdf1 BD2 WT, mean of the two raw values) was 0.593% and the “Raw data, WT” value ([6]; CgBdf1 BD2 WT, second replicate column) was 0.007798. For the same molecule, the “Raw data, YF mutant” value ([6]; CgBdf1 BD2 YF mutant, first replicate column) was 0.009509, the “Normalized (0 to 100%), YF mutant” value ([6]; CgBdf1 BD2 YF mutant, mean of the two raw values) was 0.675% and the “Raw data, YF mutant” value ([6]; CgBdf1 BD2 YF mutant, second replicate column) was 0.003988. The “OD at 600 nm” value ([7]; WT BDF1 strain) was 0.4973 and 0.4763 and 0.4793, the “OD at 600 nm” value ([7]; bdf1-bd1Δ strain) was 0.2357 and 0.2187 and 0.2437 and the “OD at 600 nm” value ([7]; bdf1-bd2Δ strain) was 0.1390 and 0.1480 and 0.1420.
With OC(Cn1cncn1)(Cn1cncn1)c1ccc(F)cc1F [fluconazole] the “growth (Figure S10A)” value ([8]; Cg101 pdr1Δ mut, Fluconazole 0.5 µg/mL) was 21% and 19% and 15%, the “growth (Figure S10A)” value ([8]; Cg101 pdr1Δ mut, Fluconazole 1 µg/mL) was 12% and 11% and 6% and the “growth (Figure S10A)” value ([8]; Cg101 pdr1Δ mut, Fluconazole 2 µg/mL) was 6% (2×) and 2%. The “growth (Figure S10A)” value ([8]; Cg101 pdr1Δ mut, Fluconazole 4 µg/mL) was 6% and 3% and 2%, the “growth (Figure S10A)” value ([8]; Cg102 pdr1 rescue, Fluconazole 0.5 µg/mL) was 55% and 61% and 53% and the “growth (Figure S10A)” value ([8]; Cg102 pdr1 rescue, Fluconazole 1 µg/mL) was 36% and 35% and 25%. The “growth (Figure S10A)” value ([8]; Cg102 pdr1 rescue, Fluconazole 2 µg/mL) was 14% and 19% and 18%, the “growth (Figure S10A)” value ([8]; Cg102 pdr1 rescue, Fluconazole 4 µg/mL) was 5% and 9% and 6% and the “growth (Figure S10A)” value ([8]; Cg103 PDR1 WT, Fluconazole 0.5 µg/mL) was 57% and 60% and 48%. For the same molecule, the “growth (Figure S10A)” value ([8]; Cg103 PDR1 WT, Fluconazole 1 µg/mL) was 24% (2×) and 33%, the “growth (Figure S10A)” value ([8]; Cg103 PDR1 WT, Fluconazole 2 µg/mL) was 13% and 12% and 14% and the “growth (Figure S10A)” value ([8]; Cg103 PDR1 WT, Fluconazole 4 µg/mL) was 6% and 5% (2×). The “sensitivity upon deletion of PDR1” value ([8]; titration, pdr1Δ versus WT and rescue strains) was “enhanced”.
